Measurements from BigSolDB 2.1.

Cc1[nH]nc2cc([N+](=O)[O-])ccc12
solubility (mole fraction)
Conditions	in ethanol	in n-propanol	in water
278.15 K	0.00471	0.0051	2.06e-05
283.15 K	0.00539	0.00574	2.7e-05
288.15 K	0.00619	0.00682	3.52e-05
293.15 K	0.0073	0.00793	4.67e-05
298.15 K	0.00866	0.00901	6.15e-05
303.15 K	0.0102	0.0103	7.91e-05
308.15 K	0.0118	0.0118	9.98e-05
313.15 K	0.0137	0.0133	0.000123
318.15 K	0.016	0.0149	0.000151
323.15 K	0.019	0.017	0.000182
328.15 K	0.022	0.0194	0.000222
